Results taken from patent publication US20230059136A1, “THE COMPOUNDS AND COMPOSITIONS FOR TREATING CONDITIONS ASSOCIATED WITH NLRP ACTIVITY” (Novartis AG, priority 2018, published 2023).
Read-outs that look alike come from different tables or passages of the source.

System: IL-1β production in PMA-differentiated THP-1 cells
Assay: IL-1β production in PMA-differentiated THP-1 cells stimulated with gramicidin (hTHP-1 assay containing 2% fetal bovine serum)
Type: cell-based, human
Conditions: 2% fetal bovine serum, read-out: hTHP-1 IC50 (Average IC50 of compounds in hTHP-1 assay)
How it was run: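 THP-1 cells were differentiated with PMA 20 ng/ml for 16-18 h, then plated at 50,000 cells/well in RPMI with 2% FBS. They were preincubated 1 h with compound (100–0.0017 μM final, 0.37% DMSO), then stimulated with gramicidin 5 μM for 2 h. Supernatant IL-1β was measured by HTRF.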

[1] = Homo sapiens, THP-1, Table B1, cells printed as numeric bound
[2] = Homo sapiens, THP-1, Table B1, class symbols

| Compound | IC50 [1] | IC50 [2] | other results |
| --- | --- | --- | --- |
| CC(C)c1cc2c(c(C(C)C)c1CC(=O)N=S(N)(=O)c1ccc(C(C)(C)O)cc1)COC2 (single isomer, unassigned) [Example 302, (S) or (R)-N-(amino(4-(2-hydroxypropan-2-yl)phenyl)(oxo)-λ^6-sulfaneylidene)-2-(4,6-diisopropyl-1,3-dihydroisobenzofuran-5-yl)acetamide] | > 30 µM | – | – |
| CC(C)c1cc2c(c(C(C)C)c1CC(=O)N=S(N)(=O)c1cccc(C(C)(C)O)c1)COC2 (single isomer, unassigned) [Example 303, (R) or (S)-N-(amino(3-(2-hydroxypropan-2-yl)phenyl)(oxo)-λ^6-sulfaneylidene)-2-(4,6-diisopropyl-1,3-dihydroisobenzofuran-5-yl)acetamide] | – | 1 to 5 µM | – |
| CC(C)c1cc2c(c(C(C)C)c1CC(=O)N=S(N)(=O)c1cccc(C(C)(C)O)c1)COC2 (single isomer, unassigned) [Example 304, (S) or (R)-N-(amino(3-(2-hydroxypropan-2-yl)phenyl)(oxo)-λ^6-sulfaneylidene)-2-(4,6-diisopropyl-1,3-dihydroisobenzofuran-5-yl)acetamide] | > 30 µM | – | – |
| CC(C)c1cc(C(F)F)nc(C(C)C)c1CC(=O)N=S(N)(=O)c1sc(CN(C)C)cc1F (single isomer, unassigned) [Example 305, (S) or (R)-N-(amino(5-((dimethylamino)methyl)-3-fluorothiophen-2-yl) (oxo)-λ^6-sulfaneylidene)-2-(6-(difluoromethyl)-2,4-diisopropylpyridin-3-yl)acetamide] | > 30 µM | – | – |
| CC(C)c1cc(C(F)F)nc(C(C)C)c1CC(=O)N=S(N)(=O)c1sc(CN(C)C)cc1F (single isomer, unassigned) [Example 306, (R) or (S)-N-(amino(5-((dimethylamino)methyl)-3-fluorothiophen-2-yl)(oxo)-λ^6-sulfaneylidene)-2-(6-(difluoromethyl)-2,4-diisopropylpyridin-3-yl)acetamide] | – | 0.2 to 1 µM | – |
| CC(C)c1cc2c(c(C(C)C)c1CC(=O)N=S(N)(=O)c1sc(CN(C)C)cc1F)COC2 (single isomer, unassigned) [Example 307, (R) or (S)-N-(amino(5-((dimethylamino)methyl)-3-fluorothiophen-2-yl)(oxo)-λ^6-sulfaneylidene)-2-(4,6-diisopropyl-1,3-dihydroisobenzofuran-5-yl)acetamide] | – | 0.2 to 1 µM | – |
| CC(C)c1cc2c(c(C(C)C)c1CC(=O)N=S(N)(=O)c1sc(CN(C)C)cc1F)COC2 (single isomer, unassigned) [Example 308, (S) or (R)-N-(amino(5-((dimethylamino)methyl)-3-fluorothiophen-2-yl)(oxo)-λ^6-sulfaneylidene)-2-(4,6-diisopropyl-1,3-dihydroisobenzofuran-5-yl)acetamide] | > 30 µM | – | – |
| CC(C)c1cc2c(c(C(C)C)c1CC(=O)N=S(N)(=O)c1cnn3c1OCCC3)COC2 (single isomer, unassigned) [Example 309, (S) or (R)-N-(amino (6,7-dihydro-5H-pyrazolo[5,1-b][1,3]oxazin-3-yl)(oxo)-λ^6-sulfaneylidene)-2-(4,6-diisopropyl-1,3-dihydroisobenzofuran-5-yl)acetamide] | > 30 µM | – | – |
| CC(C)c1cc2c(c(C(C)C)c1CC(=O)N=S(N)(=O)c1cnn3c1OCCC3)COC2 (single isomer, unassigned) [Example 310, (R) or (S)-N-(amino (6,7-dihydro-5H-pyrazolo[5,1-b][1,3]oxazin-3-yl)(oxo)-λ^6-sulfaneylidene)-2-(4,6-diisopropyl-1,3-dihydroisobenzofuran-5-yl)acetamide] | – | 1 to 5 µM | – |
| CC(C)c1ccc(F)c(C(C)C)c1CC(=O)N=S(N)(=O)c1cnn2c1OCCC2 (single isomer, unassigned) [Example 311, (S) or (R)-N-(amino (6,7-dihydro-5H-pyrazolo[5,1-b][1,3]oxazin-3-yl)(oxo)-λ^6-sulfaneylidene)-2-(3-fluoro-2,6-diisopropylphenyl) acetamide] | – | – | IC50 (Table B1, class symbols): 5 to 30 µM |
| CC(C)c1ccc(F)c(C(C)C)c1CC(=O)N=S(N)(=O)c1cnn2c1OCCC2 (single isomer, unassigned) [Example 312, (R) or (S)-N-(amino (6,7-dihydro-5H-pyrazolo[5,1-b][1,3]oxazin-3-yl)(oxo)-λ^6-sulfaneylidene)-2-(3-fluoro-2,6-diisopropylphenyl) acetamide] | – | – | IC50 (Table B1, class symbols): 0.2 to 1 µM |
| CC(C)(O)c1ncc(S(N)(=O)=NC(=O)Cc2cc3c(c4c2CCC4)CCC3)s1 (single isomer, unassigned) [Example 313, (R) or (S)-N-(amino(2-(2-hydroxypropan-2-yl)thiazol-5-yl)(oxo)-λ^6-sulfaneylidene)-2-(1,2,3,6,7,8-hexahydro-as-indacen-4-yl)acetamide] | – | 5 to 30 µM | – |
| CC(C)(O)c1ncc(S(N)(=O)=NC(=O)Cc2cc3c(c4c2CCC4)CCC3)s1 (single isomer, unassigned) [Example 314, (S) or (R)-N-(amino(2-(2-hydroxypropan-2-yl)thiazol-5-yl)(oxo)-λ^6-sulfaneylidene)-2-(1,2,3,6,7,8-hexahydro-as-indacen-4-yl)acetamide] | > 30 µM | – | – |
| CC(C)c1cnc(F)c(C(C)C)c1CC(=O)N=S(N)(=O)c1cnc(C(C)(C)O)s1 (single isomer, unassigned) [Example 315, (R) or (S)-N-(amino(2-(2-hydroxypropan-2-yl)thiazol-5-yl)(oxo)-λ^6-sulfaneylidene)-2-(2-fluoro-3,5-diisopropylpyridin-4-yl)acetamide] | – | 5 to 30 µM | – |
| CC(C)c1cnc(F)c(C(C)C)c1CC(=O)N=S(N)(=O)c1cnc(C(C)(C)O)s1 (single isomer, unassigned) [Example 316, (S) or (R)-N-(amino(2-(2-hydroxypropan-2-yl)thiazol-5-yl)(oxo)-λ^6-sulfaneylidene)-2-(2-fluoro-3,5-diisopropylpyridin-4-yl)acetamide] | > 30 µM | – | – |
| CC(C)c1cc2c(c(C(C)C)c1CC(=O)N=S(N)(=O)c1cnc(C(C)(C)O)s1)COC2=O (single isomer, unassigned) [Example 317, (R) or (S)-N-(amino(2-(2-hydroxypropan-2-yl)thiazol-5-yl)(oxo)-λ^6-sulfaneylidene)-2-(4,6-diisopropyl-1-oxo-1,3-dihydroisobenzofuran-5-yl)acetamide] | – | 1 to 5 µM | – |
| CC(C)c1cc2c(c(C(C)C)c1CC(=O)N=S(N)(=O)c1cnc(C(C)(C)O)s1)COC2=O (single isomer, unassigned) [Example 318, (S) or (R)-N-(amino(2-(2-hydroxypropan-2-yl)thiazol-5-yl)(oxo)-λ^6-sulfaneylidene)-2-(4,6-diisopropyl-1-oxo-1,3-dihydroisobenzofuran-5-yl)acetamide] | > 30 µM | – | – |
| CC(C)c1cc2c(c(C(C)C)c1CC(=O)N=S(N)(=O)c1ccn(C(F)F)n1)COC2 (single isomer, unassigned) [Example 319, (R) or (S)-N-(amino(1-(difluoromethyl)-1H-pyrazol-3-yl)(oxo)-λ^6-sulfaneylidene)-2-(4,6-diisopropyl-1,3-dihydroisobenzofuran-5-yl)acetamide] | – | 5 to 30 µM | – |
| CC(C)c1cc2c(c(C(C)C)c1CC(=O)N=S(N)(=O)c1ccn(C(F)F)n1)COC2 (single isomer, unassigned) [Example 320, (S) or (R)-N-(amino(1-(difluoromethyl)-1H-pyrazol-3-yl)(oxo)-λ^6-sulfaneylidene)-2-(4,6-diisopropyl-1,3-dihydroisobenzofuran-5-yl)acetamide] | > 30 µM | – | – |
